What was measured:
RDLbd = target: T1, RDLbd (Drosophila melanogaster, UniProt P25123); experiment: cell-based
T1 sequence (P25123 45-606): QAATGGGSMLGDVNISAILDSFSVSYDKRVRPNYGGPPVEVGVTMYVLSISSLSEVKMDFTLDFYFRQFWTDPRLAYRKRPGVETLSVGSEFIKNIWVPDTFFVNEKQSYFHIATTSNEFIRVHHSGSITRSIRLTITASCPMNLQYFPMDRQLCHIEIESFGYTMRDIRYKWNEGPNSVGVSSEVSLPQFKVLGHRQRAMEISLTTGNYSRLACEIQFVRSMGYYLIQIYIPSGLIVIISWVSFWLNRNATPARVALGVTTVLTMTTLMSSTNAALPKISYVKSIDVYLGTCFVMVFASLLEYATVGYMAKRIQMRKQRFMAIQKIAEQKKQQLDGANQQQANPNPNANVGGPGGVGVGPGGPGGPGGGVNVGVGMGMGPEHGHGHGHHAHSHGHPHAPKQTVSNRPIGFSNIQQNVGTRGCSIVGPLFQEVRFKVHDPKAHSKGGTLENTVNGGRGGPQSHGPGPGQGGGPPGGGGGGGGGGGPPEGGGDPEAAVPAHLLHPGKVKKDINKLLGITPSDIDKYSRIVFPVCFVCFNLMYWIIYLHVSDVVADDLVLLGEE

RDLbdI/VA^301S = experiment: cell-based; design: species or system Drosophila melanogaster; conditions: compared to wild-type / RDLbdI/V
[1] = tested on: Drosophila carrying the P299S mutation in GluCl; design: method as in PMID 11095718; conditions: cited from earlier work
[2] = tested on: Drosophila carrying the RDLA^301S mutation; design: method as in PMID 11095718; conditions: cited from earlier work
[3] = tested on: human glycine α1 receptor A288G; design: method as in PMID 20308070; conditions: A288G mutation; cited from earlier work
RDLbdI/V = RDLbdI/V (Drosophila melanogaster, UniProt P25123, I283V); experiment: cell-based; conditions: for concentration at which responses failed to saturate: highest concentration usable, TACA, muscimol, β-alanine insoluble at higher concentrations
RDL A^301S mutation = tested on: RDL A^301S mutation; design: method as in PMID 2124226; conditions: cited from earlier work

RDLbdI/V, sequence (P25123 45-606 I283V): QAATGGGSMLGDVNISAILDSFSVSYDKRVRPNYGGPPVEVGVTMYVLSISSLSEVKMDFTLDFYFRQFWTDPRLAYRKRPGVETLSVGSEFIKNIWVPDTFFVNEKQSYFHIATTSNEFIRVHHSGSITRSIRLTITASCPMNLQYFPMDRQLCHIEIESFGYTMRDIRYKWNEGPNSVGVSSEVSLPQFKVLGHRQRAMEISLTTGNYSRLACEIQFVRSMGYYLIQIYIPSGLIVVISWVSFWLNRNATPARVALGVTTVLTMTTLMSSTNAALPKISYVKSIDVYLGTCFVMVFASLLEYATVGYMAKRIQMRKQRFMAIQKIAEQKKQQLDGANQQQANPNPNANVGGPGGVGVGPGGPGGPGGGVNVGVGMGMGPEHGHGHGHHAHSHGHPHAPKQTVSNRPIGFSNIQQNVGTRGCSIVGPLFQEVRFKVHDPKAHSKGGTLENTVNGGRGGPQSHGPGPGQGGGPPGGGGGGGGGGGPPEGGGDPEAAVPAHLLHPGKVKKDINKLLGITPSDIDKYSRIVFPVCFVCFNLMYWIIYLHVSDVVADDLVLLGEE

## CC[C@H](C)[C@H]1O[C@]2(CC[C@@H]1C)C[C@@H]1C[C@@H](C/C=C(\C)[C@@H](O[C@H]3C[C@H](OC)[C@@H](O[C@H]4C[C@H](OC)[C@@H](O)[C@H](C)O4)[C@H](C)O3)[C@@H](C)/C=C/C=C3\CO[C@@H]4[C@H](O)C(C)=C[C@@H](C(=O)O1)[C@]34O)O2 [IVM, ivermectin]
RDLbd
  IC50: 525 nM
RDLbdI/VA^301S
  resistance caused by the A^301S mutation: 2 fold
[1]
  sensitivity change: ten-fold less sensitive
[2]
  resistance compared to the wild-type: 3.3 fold
[3]
  increase in sensitivity: ~100 fold

## N#Cc1nn(-c2c(Cl)cc(C(F)(F)F)cc2Cl)c(NCc2cnccn2)c1SCF [Pyrafluprole, pyrafluprole]
RDLbd
  IC50: 631 nM
RDLbdI/VA^301S
  resistance caused by the A^301S mutation: 2 fold

## NC/C=C/C(=O)O [TACA, trans-4-aminocrotonic acid]
RDLbdI/V
  concentration at which responses failed to saturate: 6 mM

## ClC1=C(Cl)[C@]2(Cl)[C@@H]3[C@@H]4C[C@@H]([C@H]5O[C@@H]45)[C@@H]3[C@@]1(Cl)C2(Cl)Cl [dieldrin]
RDL A^301S mutation
  resistance: > 4000 fold

## N#Cc1nn(-c2c(Cl)cc(C(F)(F)F)cc2Cl)c(N)c1[S+]([O-])C(F)(F)F (stereo not drawn) [fipronil]
RDLbd
  IC50: 331 nM
RDLbdI/VA^301S
  resistance caused by the A^301S mutation: 3 fold
RDLbdI/V; 1 nM−100 µM, no GABA, receptor variant not stated, data not shown
  current induced when applied alone: no discernible current

## O=C(O)C1=CCNCC1 [isoguvacine]
RDLbdI/V
  concentration at which responses failed to saturate: 3 mM

## NCc1cc(=O)[nH]o1 [muscimol]
RDLbdI/V
  concentration at which responses failed to saturate: 3 mM

## NCCC(=O)O [β-alanine]
RDLbdI/V
  concentration at which responses failed to saturate: 10 mM

Reference: article PMC4019635 (PLoS ONE, 2014)
